{"source": "patent US11702402B2", "about": "“Small molecules that block proteasome-associated ubiquitin receptor RPN13 function and uses thereof” (DANA-FARBER CANCER INSTITUTE, INC., priority 2018, dated 2023)", "key": {"RPN13": {"molecular_target": "RPN13 (Homo sapiens, UniProt Q16186)", "sequence (Q16186 whole entry)": "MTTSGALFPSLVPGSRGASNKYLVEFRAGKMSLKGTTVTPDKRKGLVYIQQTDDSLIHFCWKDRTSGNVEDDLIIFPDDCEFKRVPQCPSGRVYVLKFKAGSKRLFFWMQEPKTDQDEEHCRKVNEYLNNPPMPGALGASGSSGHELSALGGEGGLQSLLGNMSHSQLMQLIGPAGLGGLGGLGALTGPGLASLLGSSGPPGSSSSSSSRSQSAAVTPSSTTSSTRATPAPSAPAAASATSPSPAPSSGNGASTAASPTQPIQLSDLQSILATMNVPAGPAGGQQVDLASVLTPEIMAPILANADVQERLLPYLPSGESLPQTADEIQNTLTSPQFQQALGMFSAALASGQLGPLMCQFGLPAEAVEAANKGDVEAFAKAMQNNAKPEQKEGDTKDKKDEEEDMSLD", "assay": "Rpn13 immunoblot in ANBL6.BR cells", "type": "cell-based", "design": "endogenous in cells; host or cells: MM.1S; MM.1S-CRBN KO; RPMI-8226; ANBL6.BR", "conditions": "ANBL6.BR (bortezomib-resistant); 400 nM; 16 hours", "method": "MM.1S cells, which were treated with DMSO control, bortezomib, or WL40 at indicated concentration for 3 hours; protein lysates were analyzed for different proteasome activities (CT-L, chymotrypsin-like; T-L, trypsin-like; C-L, caspase-like). FIG. 20B is a bar graph showing percent proteasome activity after normalization with DMSO control (mean±SD; n=3). Recombinant 20S proteasome was incubated with DMSO, bortezomib, or WL40 for 30 minutes, followed by assessment of the above-noted proteasome activities. FIG. 20C MM.1S cells were pretreated with exemplary proteasome inhibitor MG132 (10 μM) for 1 hour, followed by addition of WL40 (400 nM) for 8 hours. […] Total protein lysates were subjected to immunoblots for Rpn13 and α-tubulin. […] FIG. 20E ANBL6.BR cells were treated with WL40 (400 nM) or RA190 (500 nM) for 16 hours; protein lysates were subjected to immunoblot analysis using anti-Rpn13 or anti-β-actin Abs.\nCellular protein extracts were prepared using RIPA lysis buffer (50 mM Tris-HCl, 150 mM NaCl, 1% NP-40, 0.5% sodium deoxycholate, and 0.1% SDS). […]\nNext, the effect of WL40 on additional MM cell lines, including p53-mutated RPMI-8226 cells or bortezomib-resistant ANBL6.BR cells, was evaluated. […]"}, "normal PBMCs": {"test_system": "normal PBMCs", "assay": "Viability of normal PBMCs", "type": "cell-based, Human", "conditions": "48 hours", "method": "FIGS. 5A and 5B show PBMCs from normal healthy donor treated with WL40 and WL44 at the indicated concentrations for 48 hours. […]\nThe IC50 of WL40 for cell lines is shown."}, "[1]": {"test_system": "HCT116 and HCT116-Rpn13KO cell lines", "assay": "HCT116 and HCT116-Rpn13KO cell viability", "type": "cell-based", "conditions": "HCT116 versus HCT116-Rpn13KO; 48 hours; Wst-1", "method": "FIGS. 8A and 8B show HCT116 and HCT116-Rpn13KO cell lines that were treated with WL40 or WL44 at the indicated concentrations for 48 hours. Wst-1 assay was used to test cell viability.\nCRISPR-Cas9 genome editing was performed to generate Rpn13-knockout (Rpn13-KO) HCT116 and MM.1S cell lines. Cells were transfected with Rpn13-CRISPR/Cas9-knockout (KO) plasmid (Santa Cruz Biotechnology, Inc., Santa Cruz, Calif., USA) using Lipofectamine 2000 (Thermo Fisher Scientific, Waltham, Mass., USA) or the cell line Nucleofector Kit V (Amaxa Biosystems, Cologne, Germany), respectively. After 48 h incubation, green fluorescent protein (GFP)-positive cells were sorted. Rpn13 KO was confirmed by both protein expression studies and DNA sequencing."}}, "data": [{"compound": "O=C1CCC(N2C(=O)c3cccc(NCCOCCOCCOCCC(=O)N[C@@H](Cc4ccccc4)C(=O)N4C/C(=C\\c5ccc(Cl)c(Cl)c5)C(=O)/C(=C/c5ccc(Cl)c(Cl)c5)C4)c3C2=O)C(=O)N1", "note": "(stereo partly shown) [WL40]", "values": [{"measurement": "Rpn13 levels (immunoblot)", "setting": "RPN13", "result": "induced RPN13 degradation"}, {"measurement": "viability of normal PBMCs", "setting": "normal PBMCs; at the IC50, Wst-1", "result": "do not significantly affect the viability"}, {"measurement": "viability of normal PBMCs", "setting": "normal PBMCs; at the IC50 for MM cells, CellTiter-Glo", "result": "does not affect viability of normal PBMCs"}, {"measurement": "RPN13 dependence of cytotoxicity", "setting": "[1]", "result": "RPN13-dependent"}]}]}
